Measurements taken from PMC2706954, “Dissecting Structural and Functional Diversity of the Lantibiotic Mersacidin” (Chemistry & Biology, 2009).
In brackets after ≈: the same amount, converted by molar mass. Several values for one entry are separate records, joined by “and”; a condition that tells them apart may be missing. Equal entries are not always repeated. Where two headings read alike, the source gives them in different places.

Legend:
S. epidermidis NCTC11047 = type: cell-based
Experimental: (§1) Antibacterial activity of fermentation samples or purified samples was determined by Mueller-Hinton Agar diffusion bioassays using M. luteus ATCC 4698 as the indicator strain. Susceptibility testing (minimum inhibitory concentration [MIC]) for all aerobic organisms, with the exception of S. pneumoniae, was performed following the recommendations of CLSI. Susceptibility testing of S. pneumoniae was performed by two-fold serial dilutions in brain-heart-infusion broth supplemented with 50 μg/ml Ca^2+. Vancomycin was used as a reference antibiotic, and plates were incubated aerobically, with shaking, for 18–20 hr at 37°C with the MIC defined as the lowest concentration of drug that prevented visible growth.

E. faecium ATCC19579 = type: cell-based
Experimental: as §1

E. faecium 7131121 VRE = type: cell-based
Experimental: as §1

E. faecalis ATCC29212 = type: cell-based
Experimental: as §1

S. aureus R33 MRSA = type: cell-based, Staphylococcus aureus
Experimental: as §1

S. aureus SH1000 = type: cell-based, Staphylococcus aureus
Experimental: as §1

M. luteus ATCC4698 = type: cell-based, Micrococcus luteus
Experimental: as §1

S. pneumoniae BAA-255 = type: cell-based, Streptococcus pneumoniae
Experimental: as §1

[1] = CLSI recommendations, incubated aerobically with shaking 18–20 hr at 37°C, MIC = lowest concentration preventing visible growth, purified variants

Compound	MIC S. epidermidis NCTC11047 (S. epidermidis NCTC11047; NCTC11047) [µg/mL]	MIC E. faecium ATCC19579 (E. faecium ATCC19579; ATCC19579) [µg/mL]	MIC E. faecium 7131121 VRE (E. faecium 7131121 VRE; 7131121 VRE) [µg/mL]	MIC E. faecalis ATCC29212 (E. faecalis ATCC29212; ATCC29212) [µg/mL]	MIC S. aureus R33 MRSA (S. aureus R33 MRSA; R33) [µg/mL]	MIC S. aureus SH1000 (S. aureus SH1000; SH1000)	MIC M. luteus ATCC4698 (M. luteus ATCC4698; ATCC4698) [µg/mL]	MIC S. pneumoniae BAA-255 (S. pneumoniae BAA-255; BAA-255) [µg/mL]	MIC S. epidermidis NCTC11047 (S. epidermidis NCTC11047; [1]) [µg/mL]	MIC E. faecium ATCC19579 (E. faecium ATCC19579; [1]) [µg/mL]	MIC E. faecium 7131121 VRE (E. faecium 7131121 VRE; vancomycin-resistant clinical isolate, CLSI recommendations, 18–20 hr at 37°C, MIC = lowest concentration preventing visible growth) [µg/mL]	MIC E. faecalis ATCC29212 (E. faecalis ATCC29212; [1]) [µg/mL]	MIC S. aureus R33 MRSA (S. aureus R33 MRSA; [1])	MIC S. aureus SH1000 (S. aureus SH1000; [1]) [µg/mL]	MIC S. pneumoniae BAA-255 (S. pneumoniae BAA-255; two-fold serial dilutions in brain-heart-infusion broth with 50 μg/ml Ca2+, 18–20 hr at 37°C, MIC = lowest concentration preventing visible growth) [µg/mL]	MIC M. luteus ATCC4698 (M. luteus ATCC4698; [1]) [µg/mL]
C=C1NC(=O)C2NC(=O)[C@H](CC(C)C)NC(=O)C(NC(=O)[C@@H]3CSC(C)C(NC(=O)[C@H](Cc4ccccc4)NC(=O)C4NC(=O)[C@@H](N)CSC4C)C(=O)N[C@@H](CC(C)C)C(=O)N4CCC[C@H]4C(=O)N[C@@H](CC(N)=O)C(=O)NCC(=O)NCC(=O)NCC(=O)N[C@@H](C(C)C)C(=O)N3)C(C)SC[C@H](NC(=O)[C@H](CCC(=O)O)NC1=O)C(=O)N[C@@H]([C@@H](C)CC)C(=O)NC=CSC2C (stereo partly drawn) [G7N]	32 (≈ 17 µM)	64 (≈ 34 µM)	>64	>64		64 µg/mL (≈ 34 µM)	< 4	16 (≈ 8.5 µM)								
C=C1NC(=O)C2NC(=O)[C@H](CC(C)C)NC(=O)C(NC(=O)[C@@H]3CSC(C)C(NC(=O)[C@H](Cc4ccccc4)NC(=O)C4NC(=O)[C@@H](N)CSC4C)C(=O)N[C@@H](CC(C)C)C(=O)N4CCC[C@H]4C(=O)NCC(=O)N[C@@H](Cc4c[nH]cn4)C(=O)NCC(=O)NCC(=O)N[C@@H](C(C)C)C(=O)N3)C(C)SC[C@H](NC(=O)[C@H](CCC(=O)O)NC1=O)C(=O)N[C@@H]([C@@H](C)CC)C(=O)NC=CSC2C (stereo partly drawn) [G8H]	64 (≈ 33.6 µM)	>64	>64	>64	64 (≈ 33.6 µM)	64, >64 μg/ml	8 (≈ 4.2 µM)	16 (≈ 8.39 µM)								
C=C1NC(=O)C2NC(=O)[C@H](CC(C)C)NC(=O)C(NC(=O)[C@@H]3CSC(C)C(NC(=O)[C@H](Cc4ccccc4)NC(=O)C4NC(=O)[C@@H](N)CSC4C)C(=O)N[C@@H](CC(C)C)C(=O)N4CCC[C@H]4C(=O)NCC(=O)N[C@@H](CC(N)=O)C(=O)NCC(=O)NCC(=O)N[C@@H](C(C)C)C(=O)N3)C(C)SC[C@H](NC(=O)[C@H](CCC(=O)O)NC1=O)C(=O)N[C@@H]([C@@H](C)CC)C(=O)NC=CSC2C (stereo partly drawn) [G8N]									64 (≈ 34 µM)	>64	>64	>64	16 µg/mL and 32 µg/mL	>64	>64	8 (≈ 4.25 µM)
C=C1NC(=O)C2NC(=O)[C@H](CC(C)C)NC(=O)C(NC(=O)[C@@H]3CSC(C)C(NC(=O)[C@H](Cc4ccccc4)NC(=O)C4NC(=O)[C@@H](N)CSC4C)C(=O)N[C@@H](CC(C)C)C(=O)N4CCC[C@H]4C(=O)NCC(=O)NCC(=O)N[C@@H](C)C(=O)NCC(=O)N[C@@H](C(C)C)C(=O)N3)C(C)SC[C@H](NC(=O)[C@H](CCC(=O)O)NC1=O)C(=O)N[C@@H]([C@@H](C)CC)C(=O)NC=CSC2C (stereo partly drawn) [G9A]	32 (≈ 17.4 µM)	64 (≈ 34.8 µM)	>64	>64	8 (≈ 4.35 µM)	32 µg/mL (≈ 17.4 µM)	< 4	8 (≈ 4.35 µM)								

The next lines start with results.

MIC S. epidermidis NCTC11047 (S. epidermidis NCTC11047; NCTC11047) [µg/mL]	MIC E. faecium ATCC19579 (E. faecium ATCC19579; ATCC19579) [µg/mL]	MIC E. faecium 7131121 VRE (E. faecium 7131121 VRE; 7131121 VRE) [µg/mL]	MIC E. faecalis ATCC29212 (E. faecalis ATCC29212; ATCC29212) [µg/mL]	MIC S. aureus R33 MRSA (S. aureus R33 MRSA; R33) [µg/mL]	MIC S. aureus SH1000 (S. aureus SH1000; SH1000)	MIC M. luteus ATCC4698 (M. luteus ATCC4698; ATCC4698) [µg/mL]	MIC S. pneumoniae BAA-255 (S. pneumoniae BAA-255; BAA-255) [µg/mL]	Compound	MIC S. epidermidis NCTC11047 (S. epidermidis NCTC11047; [1]) [µg/mL]	MIC E. faecium ATCC19579 (E. faecium ATCC19579; [1]) [µg/mL]	MIC E. faecium 7131121 VRE (E. faecium 7131121 VRE; vancomycin-resistant clinical isolate, CLSI recommendations, 18–20 hr at 37°C, MIC = lowest concentration preventing visible growth) [µg/mL]	MIC E. faecalis ATCC29212 (E. faecalis ATCC29212; [1]) [µg/mL]	MIC S. aureus R33 MRSA (S. aureus R33 MRSA; [1])	MIC S. aureus SH1000 (S. aureus SH1000; [1]) [µg/mL]	MIC S. pneumoniae BAA-255 (S. pneumoniae BAA-255; two-fold serial dilutions in brain-heart-infusion broth with 50 μg/ml Ca2+, 18–20 hr at 37°C, MIC = lowest concentration preventing visible growth) [µg/mL]	MIC M. luteus ATCC4698 (M. luteus ATCC4698; [1]) [µg/mL]
8 (≈ 4.29 µM)	16 (≈ 8.58 µM)	32 (≈ 17.2 µM)	32 (≈ 17.2 µM)	8 (≈ 4.29 µM)	16 µg/mL (≈ 8.58 µM)	0.5 (≈ 0.268 µM)		C=C1NC(=O)C2NC(=O)[C@H](CC(C)C)NC(=O)C(NC(=O)[C@@H]3CSC(C)C(NC(=O)[C@H](Cc4c[nH]c5ccccc45)NC(=O)C4NC(=O)[C@@H](N)CSC4C)C(=O)N[C@@H](CC(C)C)C(=O)N4CCC[C@H]4C(=O)NCC(=O)NCC(=O)NCC(=O)NCC(=O)N[C@@H](C(C)C)C(=O)N3)C(C)SC[C@H](NC(=O)[C@H](CCC(=O)O)NC1=O)C(=O)N[C@@H]([C@@H](C)CC)C(=O)NC=CSC2C (stereo partly drawn) [F3W]								
64 (≈ 34.8 µM)	64 (≈ 34.8 µM)	>64	>64		>64 µg/mL	64 (≈ 34.8 µM)	>64	C=C1NC(=O)C2NC(=O)[C@H](CC(C)C)NC(=O)C(NC(=O)[C@@H]3CSC(C)C(NC(=O)[C@H](Cc4ccccc4)NC(=O)C4NC(=O)[C@@H](N)CSC4C)C(=O)N[C@@H](CC(C)C)C(=O)N4CCC[C@H]4C(=O)N[C@@H](C)C(=O)NCC(=O)NCC(=O)NCC(=O)N[C@@H](C(C)C)C(=O)N3)C(C)SC[C@H](NC(=O)[C@H](CCC(=O)O)NC1=O)C(=O)N[C@@H]([C@@H](C)CC)C(=O)NC=CSC2C (stereo partly drawn) [G7A]								
